Assay results taken from patent US6838450B2, “Drug complex” (Daiichi Pharmaceutical Co., LTD, priority 1996, dated 2005).
Where a name gives a salt, the structure may show the parent alone. Peptide text beside a SMILES is read from it.

Columns and labels:
[1] = test system: mouse fibrosarcoma Meth A cells; test: Antitumor activity, Meth A tumor-bearing mice, injection every 4 days 4 times; conditions: for antitumor activity (in words): compared to the drug compound, per se; for Inhibition rate (%): tail vein every 4 days from day 7, tumor weight day 21
Method: Meth A tumor-bearing mice were prepared (7 mice per group) by subcutaneously transplanting 1×10^6 mouse fibrosarcoma Meth A cells into the right inguinal regions of BALB/c male mice (7-week old). On day 7, the drug complex of Example 9 dissolved in distilled water for injection was injected in the tail vein of the Meth A tumor-bearing mice every 4 days 4 times. On day 21 after the transplantation, tumor masses were excised and weighed to calculate the inhibition rate of tumor growth according to the following equation: inhibition rate of tumor growth (%)=[1−(average tumor weight of the group administered with the test sample/average tumor weight of control group)]×100.

[2] = test system: mouse fibrosarcoma Meth A cells; test: Antitumor activity, Meth A tumor-bearing mice, single administration; format: in vivo; conditions: for Inhibition rate (%): Table 3; for antitumor activity (in words) / effective dose-range: single administration, compared to the drug compound, per se
Method: Meth A tumor-bearing mice (6 mice per group) were prepared according to a similar manner to that of Example 11 and the antitumor activity was compared to that obtained by single administration of the drug complexes of Examples 8 and 9 once on day 7. As a result, the degree of the antitumor activity was as follows: (Polysaccharide derivative)-Gly-Gly-Phe-Gly-NH—A′>(Polysaccharide derivative)-Gly-Gly-Gly-Phe-NH—A′>the drug compound, per se.
Meth A tumor-bearing mice (6 mice per group) were prepared according to a similar manner to that of Example 11, and the antitumor activity of the drug complex of Example 41 was examined in the cases of single administration in a similar manner to that of Example 12, and its antitumor activity was compared to that of the drug compound, per se. […]

[3] = test system: mouse fibrosarcoma Meth A cells; test: as above; format: in vivo
[4] = test system: SC-6 human gastric tumor; test: Antitumor activity, SC-6 tumor-bearing nude mice; format: in vivo, mouse; conditions: for Inhibition rate (%) / Numbers of died mice/mice used: single intravenous administration on day 27, nude mice
Method: (§1) SC-6 tumor-bearing nude mice (5 mice per group) were prepared by subcutaneously transplanting a piece of SC-6 human gastric tumor block into the right inguinal regions of nude mice (BALB/c-nu/nu, male).

[5] = test system: Human lung cancer QG-90; test: Antitumor activity, human lung cancer QG-90-bearing nude mice; format: in vivo, mouse; conditions: for Inhibition rate (%) / Numbers of died mice/mice used: single intravenous administration on day 16, nude mice
Method: as §1
Human lung cancer QG-90-bearing nude mice (5 mice per group) were prepared according to a similar manner to that of Example 57.

[6] = Pharmacokinetics in Meth A tumor-bearing mice; format: in vivo, mouse; conditions: single administration, 10 mg/kg calculated as the drug compound; FIG. 24
[7] = 5 mg/kg calculated based on the drug compound, single administration on day 7
[8] = Example 60, 20 mg/kg calculated based on the drug compound, single administration, 20 mg/kg
[9] = Example 60, 40 mg/kg calculated based on the drug compound, single administration
[10] = Example 60, 80 mg/kg calculated based on the drug compound, single administration
[11] = Example 60, 100 mg/kg calculated based on the drug compound, single administration
[12] = 2 mg/kg calculated based on the drug compound
[13] = 8 mg/kg calculated based on the drug compound
[14] = single intravenous administration, compared to the drug compound, per se
[15] = 1.75 mg/kg calculated based on the drug compound
[16] = 7 mg/kg calculated based on the drug compound

CC[C@@]1(O)C(=O)OCc2c1cc1n(c2=O)Cc2c-1nc1cc(F)c(C)c3c1c2[C@@H](NC(=O)CNC(=O)[C@H](Cc1ccccc1)NC(=O)CNC(=O)CN)CC3 [3′-N-(Gly-Gly-Phe-Gly)-NH—A (A—NH2=DX-8951) trifluoroacetic acid salt] (HELM PEPTIDE1{G.G.F.G.[CC[C@@]1(O)C(=O)OCc2c1cc1n(c2=O)Cc2c-1nc1cc(F)c(C)c3c1c2[C@@H](N[*:1])CC3]}$$$$V2.0)
antitumor activity (in words) ([1]; every 4 days 4 times): not effective

CC[C@@]1(O)C(=O)OCc2c1cc1n(c2=O)Cc2c-1nc1cc(F)c(C)c3c1c2[C@@H](N)CC3 [DX-8951, (1S,9S)-1-amino-9-ethyl-5-fluoro-2,3-dihydro-9-hydroxy-4-methyl-1H,12H-benzo[de]pyrano[3′,4′:6,7]indolizino[1,2-b]quinoline-10,13(9H,15H)-dione, reference compound]
Inhibition rate (%) ([2]; 20 mg/kg single administration on day 7, drug compound = DX-8951): 59%
Inhibition rate (%) ([2]; 60 mg/kg single administration on day 7, drug compound = DX-8951): 77%

carboxymethyldextran polyalcohol-Gly-Gly-Gly-Phe-NH—A′ (A—NH2=DX-8951) [Example 8]
Inhibition rate (%) [2, 7]: 76%
Inhibition rate (%) ([2]; 10 mg/kg calculated based on the drug compound, single administration on day 7): 85%

carboxymethyldextran polyalcohol-Gly-Gly-Gly-Phe-NH—A′ (A—NH2=DX-8951) [Example 29]
antitumor activity (in words) [2]: high
effective dose-range [2]: broader
Inhibition rate (%) ([3]; Example 60, 5 mg/kg calculated based on the drug compound, single administration): 79%
Inhibition rate (%) ([3]; Example 60, 10 mg/kg calculated based on the drug compound, single administration): 89%
Inhibition rate (%) [3, 8]: 99%
Inhibition rate (%) ([3]; Example 60, 30 mg/kg calculated based on the drug compound, single administration): 99%

carboxymethyldextran polyalcohol-Gly-Gly-Gly-Phe-NH—A′ (A—NH2=DX-8951) [Example 46]
antitumor activity (in words) [2]: high
effective dose-range [2]: broader
Inhibition rate (%) [3, 8]: 75%
Inhibition rate (%) [3, 9]: 82%
Inhibition rate (%) [3, 10]: 92%
Inhibition rate (%) [3, 11]: 94%

carboxymethyldextran polyalcohol-Gly-Gly-Phe-Gly-DXR [Example 44]
antitumor activity (in words) [2]: remarkably enhanced
effective dose-range [2]: broader
Inhibition rate (%) ([3]; Example 61, 5 mg/kg calculated based on the drug compound, single administration): 76%
Inhibition rate (%) ([3]; Example 61, 10 mg/kg calculated based on the drug compound, single administration): 87%
Inhibition rate (%) ([3]; Example 61, 20 mg/kg calculated based on the drug compound, single administration): 96%
Inhibition rate (%) ([3]; Example 61, 40 mg/kg calculated based on the drug compound, single administration): 96%

carboxymethyldextran polyalcohol-Gly-Gly-Phe-Gly-NH—A′ (A—NH2=DW-8089) [Example 41]
antitumor activity (in words) [2]: remarkably enhanced
effective dose-range [2]: broader
Inhibition rate (%) ([3]; Example 59, 3.125 mg/kg calculated based on the drug compound, single administration): 61%
Inhibition rate (%) ([3]; Example 59, 6.25 mg/kg calculated based on the drug compound, single administration): 81%
Inhibition rate (%) ([3]; Example 59, 12.5 mg/kg calculated based on the drug compound, single administration): 95%
Inhibition rate (%) ([3]; Example 59, 25 mg/kg calculated based on the drug compound, single administration): 99%

carboxymethyldextran polyalcohol-Gly-Gly-Phe-Gly-NH—A′ (A—NH2=DX-8951) [Example 9]
Inhibition rate (%) ([1]; dose 0.35 mg/kg × 4 calculated based on the drug compound): 41%
Inhibition rate (%) ([1]; dose 0.7 mg/kg × 4 calculated based on the drug compound): 59%
Inhibition rate (%) ([1]; dose 1.4 mg/kg × 4 calculated based on the drug compound): 94%
toxicity (weight loss) ([1]; every 4 days 4 times): no toxicity
antitumor activity (in words) ([1]; every 4 days 4 times): remarkably enhanced
Inhibition rate (%) [2, 7]: 98%
Inhibition rate (%) ([3]; Table 3, 2.5 mg/kg calculated based on the drug compound, single administration on day 7): 87%

carboxymethyldextran polyalcohol-Gly-Gly-Phe-Gly-NH—A′ (A—NH2=DX-8951) [Example 15]
antitumor activity (in words) [2]: remarkably enhanced
effective dose-range [2]: broader
Inhibition rate (%) [4, 12]: 71%
Numbers of died mice/mice used [4, 12]: 0/5
Inhibition rate (%) [4, 13]: 100%
Numbers of died mice/mice used [4, 13]: 0/5
death due to toxicity ([4]; single intravenous administration): no death
antitumor activity (in words) [4, 14]: higher
Inhibition rate (%) [5, 15]: 97%
Numbers of died mice/mice used [5, 15]: 0/5
Inhibition rate (%) [5, 16]: 98%
Numbers of died mice/mice used [5, 16]: 0/5
antitumor activity (in words) [5, 14]: remarkably enhanced
effective dose-range [5, 14]: broader
distribution in tumor tissues [6]: high
retention of blood level [6]: extremely long
Inhibition rate (%) ([3]; Example 56, 1.25 mg/kg calculated based on the drug compound, single administration): 83%
Inhibition rate (%) ([3]; Example 56, 2.5 mg/kg calculated based on the drug compound, single administration): 95%
Inhibition rate (%) ([3]; Example 56, 5 mg/kg calculated based on the drug compound, single administration): 99%
Inhibition rate (%) ([3]; Example 56, 10 mg/kg calculated based on the drug compound, single administration): 100%

α-methylcarboxymethyldextran polyalcohol-Gly-Gly-Gly-Phe-NH—A′ (A—NH2=DX-8951) [Example 47]
antitumor activity (in words) [2]: high
effective dose-range [2]: broader
Inhibition rate (%) ([3]; Example 60, 20 mg/kg calculated based on the drug compound, single administration): 75%
Inhibition rate (%) [3, 9]: 97%
Inhibition rate (%) [3, 10]: 94%
Inhibition rate (%) [3, 11]: 96%
